Reference: patent US4725583A, “Functionalized peptidylaminoalcohols” (Abbott Laboratories, priority 1986, dated 1988)

Target: T1, human renal renin (Homo sapiens, UniProt P00797)
T1 construct: human renal renin, free from acid proteolytic activity; from tissue
T1 sequence (P00797 67-406): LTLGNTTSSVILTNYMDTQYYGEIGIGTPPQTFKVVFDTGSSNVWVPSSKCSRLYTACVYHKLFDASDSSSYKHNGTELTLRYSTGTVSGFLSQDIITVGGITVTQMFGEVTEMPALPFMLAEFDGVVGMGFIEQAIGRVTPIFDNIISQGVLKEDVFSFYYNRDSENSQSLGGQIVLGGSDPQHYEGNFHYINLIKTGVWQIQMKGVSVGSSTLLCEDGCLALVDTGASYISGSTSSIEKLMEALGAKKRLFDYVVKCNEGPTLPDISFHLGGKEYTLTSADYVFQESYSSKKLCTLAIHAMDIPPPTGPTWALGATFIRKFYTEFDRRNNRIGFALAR
Test: In vitro inhibition of human renal renin (angiotensin I formation measured by radioimmunoassay)
Assay type: biochemical
Conditions: human renal renin with human renin substrate (angiotensinogen), 37° C., pH 6.0

Row | SMILES | IC50
1 | CC(C)C[C@H](NC(=O)[C@H](C)NC(=O)[C@H](Cc1ccccc1)NC(=O)OC(C)(C)C)C(O)C=O (stereo partly drawn) [Example 3, Boc-Phe-Ala Amide of (3S)-Amino-2-hydroxy-5-methylhexanal] | 10 nM
2 | C[C@H](NC(=O)[C@H](Cc1ccccc1)NC(=O)OC(C)(C)C)C(=O)N[C@@H](CC1CCCCC1)[C@@H](O)CCl [Example 14, Boc-Phe-Ala Amide of (2R,3S)-3-Amino-1-chloro-4-cyclohexyl-2-hydroxybutane] | 400 nM
3 | C[C@H](NC(=O)[C@H](Cc1ccccc1)NC(=O)OC(C)(C)C)C(=O)N[C@@H](CC1CCCCC1)[C@@H](O)CBr [Example 16, Boc-Phe-Ala Amide of (2R,3S)-3-Amino-1-bromo-4-cyclohexyl-2-hydroxybutane] | 700 nM
4 | CC(C)CC(=O)C(O)[C@H](CC1CCCCC1)NC(=O)[C@H](Cc1cnc[nH]1)NC(=O)[C@H](Cc1ccccc1)NC(=O)OC(C)(C)C (stereo partly drawn) [Example 19, Boc-Phe-His Amide of (2S)-Amino-1-cyclohexyl-3-hydroxy-6-methylheptan-4-one] | 10 nM
